According to publication PMC6526958 (Journal of medicinal chemistry, 2019):
“Also recorded” adds a separate entry of the source. Values belong to the molecule of their own block, whether it stands above or below them.

Experiments:
[1] = target: T1, recombinant soluble rat CD73 (Rattus norvegicus, UniProt P21588); assay: radiometric CD73 assay with [2,8-3H]AMP, recombinant soluble rat CD73; assay type: biochemical; conditions: for fold less active than AOPCP: rat CD73 Ki relative to AOPCP
T1 sequence (P21588 29-551 limits assumed): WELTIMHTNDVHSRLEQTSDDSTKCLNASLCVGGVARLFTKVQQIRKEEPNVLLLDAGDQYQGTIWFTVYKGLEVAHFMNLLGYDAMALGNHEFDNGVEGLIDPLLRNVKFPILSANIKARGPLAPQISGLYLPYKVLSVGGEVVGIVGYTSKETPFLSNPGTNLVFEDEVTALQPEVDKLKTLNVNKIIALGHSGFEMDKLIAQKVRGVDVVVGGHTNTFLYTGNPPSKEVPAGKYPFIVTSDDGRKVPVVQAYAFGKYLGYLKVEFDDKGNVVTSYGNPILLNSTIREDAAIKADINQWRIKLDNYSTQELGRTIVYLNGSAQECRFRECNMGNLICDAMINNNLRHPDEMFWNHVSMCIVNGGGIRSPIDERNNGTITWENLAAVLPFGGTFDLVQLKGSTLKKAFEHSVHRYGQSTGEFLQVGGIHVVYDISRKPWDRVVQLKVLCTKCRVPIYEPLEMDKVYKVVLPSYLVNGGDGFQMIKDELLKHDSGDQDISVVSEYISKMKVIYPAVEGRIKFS

[2] = tested on: recombinant soluble human CD73; assay: radiometric CD73 assay with [2,8-3H]AMP, recombinant soluble human CD73; assay type: biochemical; conditions: human versus rat CD73
human P2Y14 receptor = target: T2, human P2Y14 receptor (Homo sapiens, UniProt Q15391); assay: fluorescent antagonist binding competition; conditions: 9h up to 3.0 µM
T2 sequence (Q15391 1-338): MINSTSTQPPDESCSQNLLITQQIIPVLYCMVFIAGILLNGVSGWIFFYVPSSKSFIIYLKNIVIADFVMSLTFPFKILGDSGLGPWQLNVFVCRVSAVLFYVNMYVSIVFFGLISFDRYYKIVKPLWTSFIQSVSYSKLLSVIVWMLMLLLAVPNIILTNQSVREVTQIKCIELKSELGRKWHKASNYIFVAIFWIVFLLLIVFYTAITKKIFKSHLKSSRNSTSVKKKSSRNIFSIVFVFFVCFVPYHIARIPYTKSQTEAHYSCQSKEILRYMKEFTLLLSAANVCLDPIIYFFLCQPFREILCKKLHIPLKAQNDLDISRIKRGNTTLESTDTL

[3] = stability in aqueous solution; assay type: physicochemical; conditions: room temperature
human P2Y6 receptor = human P2Y6 receptor (Homo sapiens, UniProt Q15077); assay type: cell-based; conditions: 9h up to 3.0 µM
Chain of human P2Y6 receptor (Q15077 whole entry): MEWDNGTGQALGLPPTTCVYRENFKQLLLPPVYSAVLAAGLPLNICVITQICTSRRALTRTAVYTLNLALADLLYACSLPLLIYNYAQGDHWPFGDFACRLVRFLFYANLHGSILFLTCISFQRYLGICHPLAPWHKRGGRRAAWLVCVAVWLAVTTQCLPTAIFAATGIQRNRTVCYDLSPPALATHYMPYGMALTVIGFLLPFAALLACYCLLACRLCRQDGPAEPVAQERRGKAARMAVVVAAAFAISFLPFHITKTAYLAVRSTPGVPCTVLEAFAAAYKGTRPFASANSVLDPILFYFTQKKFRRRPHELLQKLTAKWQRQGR

[4] = target: T3, membrane-bound CD73 (MDA-MB-231 membrane preparation) (Homo sapiens, UniProt P21589); assay: radiometric CD73 assay, membrane preparations of MDA-MB-231 cells; assay type: biochemical
T3 sequence (P21589 27-574): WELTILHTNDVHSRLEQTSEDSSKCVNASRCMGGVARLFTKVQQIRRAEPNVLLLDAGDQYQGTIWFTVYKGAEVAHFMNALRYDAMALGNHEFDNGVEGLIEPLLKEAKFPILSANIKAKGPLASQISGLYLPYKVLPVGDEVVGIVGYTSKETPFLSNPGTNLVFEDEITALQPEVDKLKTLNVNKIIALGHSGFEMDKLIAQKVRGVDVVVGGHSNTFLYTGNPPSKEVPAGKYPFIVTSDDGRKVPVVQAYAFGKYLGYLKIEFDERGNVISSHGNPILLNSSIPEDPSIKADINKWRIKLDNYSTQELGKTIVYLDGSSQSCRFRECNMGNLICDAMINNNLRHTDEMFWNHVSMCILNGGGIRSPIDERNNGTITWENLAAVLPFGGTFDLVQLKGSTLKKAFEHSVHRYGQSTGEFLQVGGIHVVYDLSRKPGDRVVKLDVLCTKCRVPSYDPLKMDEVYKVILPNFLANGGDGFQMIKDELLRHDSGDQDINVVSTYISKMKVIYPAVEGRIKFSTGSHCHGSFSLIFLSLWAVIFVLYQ

[5] = target: T4, recombinant soluble human CD73 (Homo sapiens, UniProt P21589); assay: radiometric CD73 assay with [2,8-3H]AMP, recombinant soluble human CD73; assay type: biochemical
T4 sequence (P21589 28-549): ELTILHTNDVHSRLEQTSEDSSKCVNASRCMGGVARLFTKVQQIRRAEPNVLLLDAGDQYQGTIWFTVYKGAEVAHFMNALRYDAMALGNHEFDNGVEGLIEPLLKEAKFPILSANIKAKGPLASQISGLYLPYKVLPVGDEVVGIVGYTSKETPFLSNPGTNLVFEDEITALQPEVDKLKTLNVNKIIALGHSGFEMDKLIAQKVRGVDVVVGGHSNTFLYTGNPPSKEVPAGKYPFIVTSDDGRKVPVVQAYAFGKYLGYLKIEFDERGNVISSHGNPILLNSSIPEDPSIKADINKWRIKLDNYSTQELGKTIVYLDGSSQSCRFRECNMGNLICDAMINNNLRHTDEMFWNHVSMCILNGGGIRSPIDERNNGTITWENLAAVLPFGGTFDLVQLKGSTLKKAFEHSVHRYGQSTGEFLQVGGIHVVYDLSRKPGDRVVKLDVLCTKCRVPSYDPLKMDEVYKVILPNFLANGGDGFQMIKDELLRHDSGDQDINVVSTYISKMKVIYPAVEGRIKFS

eN/CD73 in human tonsils = target: T5, eN/CD73 in human tonsils (Homo sapiens, UniProt P21589); assay: in situ ecto-5′-nucleotidase; assay type: biochemical; conditions: human tonsil cryosections
T5 sequence (P21589 27-574): T3 sequence (P21589 27-574)

CD73 = CD73 enzyme inhibition assay, control for the triethylammonium salt form; assay type: biochemical; conditions: 500 µM

SMILES: O=c1ccn([C@@H]2O[C@H](COP(=O)(O)CP(=O)(O)O)[C@@H](O)[C@H]2O)c(=O)[nH]1 [4a, Uridine-5′-O-[(phosphonomethyl)phosphonic acid]]
- fold less active than AOPCP [1]: 11 fold

SMILES: CCn1c(=O)ccn([C@@H]2O[C@H](COP(=O)(O)CP(=O)(O)O)[C@@H](O)[C@H]2O)c1=O [4c, 3-Ethyluridine-5′-O-[(phosphonomethyl)phosphonic acid]]
- CD73 inhibitory activity (in words) ([1]; rat CD73): inactive

SMILES: CO[C@@H]1[C@H](O)[C@@H](COP(=O)(O)CP(=O)(O)O)O[C@H]1n1cc(C)c(=O)[nH]c1=O [4h, 2′-O-Methyl-5-methyluridine-5′-O-[(phosphonomethyl)phosphonic acid]]
- CD73 inhibitory activity (in words) ([1]; rat CD73): inactive

SMILES: O=c1ccn([C@@H]2O[C@H](COP(=O)(O)CP(=O)(O)O)[C@@H](O)[C@H]2O)c(=S)[nH]1 [4y, 2-Thiouridine-5′-O-[(phosphonomethyl)phosphonic acid]]
- CD73 inhibitory activity (in words) ([1]; rat CD73): not tolerated

SMILES: Nc1ccn([C@@H]2O[C@H](COP(=O)(O)CP(=O)(O)O)[C@@H](O)[C@H]2O)c(=O)n1 [7a, Cytidine-5′-O-[(phosphonomethyl)phosphonic acid]]
- fold less active than AOPCP [1]: 5 fold

SMILES: O=C(Nc1ccn([C@@H]2O[C@H](COP(=O)(O)CP(=O)(O)O)[C@@H](O)[C@H]2O)c(=O)n1)c1ccccc1 [7f, 4-Benzoylcytidine-5′-O-[(phosphonomethyl)phosphonic acid]]
- potency at P2Y14 receptor (in words) (human P2Y14 receptor): potencies in the micromolar range
- fold more potent at human CD73 as compared to the rat enzyme [2]: 2 to 3 fold
- stability in aqueous solution [3]: gradual decomposition when left at room temperature over several weeks in aqueous solution to UOPCP (4a) and COPCP (7a); also recorded: decomposition of compound 7f to UOPCP
- potency at P2Y6 receptor (in words) (human P2Y6 receptor): potencies in the micromolar range

SMILES: O=c1[nH]/c(=N/OCc2ccccc2)c(F)cn1[C@@H]1O[C@H](COP(=O)(O)CP(=O)(O)O)[C@@H](O)[C@H]1O [9g, N^4-[O-(4-Benzyloxy)]-5-fluoro-cytidine-5′-O-[(phosphonomethyl)phosphonic acid]]
- fold more potent at human CD73 as compared to the rat enzyme [2]: 5 fold

SMILES: Cn1c(=O)n([C@@H]2O[C@H](COP(=O)(O)CP(=O)(O)O)[C@@H](O)[C@H]2O)cc/c1=N/OCc1ccccc1 [9h, N^4-[O-(4-Benzyloxy)]-3-methyl-cytidine-5′-O-[(phosphonomethyl)phosphonic acid]]
- inhibition of CD73 catalytic (AMPase) activity in situ (eN/CD73 in human tonsils; 1, 10 and 100 nM, 100 µM AMP): inhibited catalytic activity of CD73 in a concentration-dependent manner, in situ more potently than AOPCP
- reversibility of CD73 inhibition (eN/CD73 in human tonsils): highly reversible CD73 inhibitor
- potency at P2Y14 receptor (in words) (human P2Y14 receptor): completely inactive
- potency at P2Y6 receptor (in words) (human P2Y6 receptor): completely inactive

SMILES: CCOP(=O)(O)OP(=O)(O)OC[C@H]1O[C@@H](n2ccc(=O)[nH]c2=S)[C@H](O)[C@@H]1O [compound 12]
- CD73 inhibitory activity (in words) ([1]; rat CD73): inactive

SMILES: CCN(CC)CC.Cl [triethylammonium chloride]
- reduction of CD73 enzymatic activity (CD73): no reduction of enzymatic activity was detected

More lines, now with the values ahead:

- CD73 inhibitory activity (in words) ([1]; rat CD73): inactive
SMILES: Nc1ccnc2c1ncn2[C@@H]1O[C@H](COP(=O)(O)CP(=O)(O)O)[C@@H](O)[C@H]1O [2e, 1-Deazaadenosine-5′-O-[(phosphonomethyl)phosphonic acid]]

- CD73 inhibitory activity (in words) ([1]; rat CD73): inactive
SMILES: Nc1nccc2c1ncn2[C@@H]1O[C@H](COP(=O)(O)CP(=O)(O)O)[C@@H](O)[C@H]1O [2f, 3-Deazaadenosine-5′-O-[(phosphonomethyl)phosphonic acid]]

- fold higher CD73 inhibitory activity compared to AOPCP ([1]; rat CD73): 2 fold
SMILES: Nc1ncnc2c1ccn2[C@@H]1O[C@H](COP(=O)(O)CP(=O)(O)O)[C@@H](O)[C@H]1O [2g, 7-Deazaadenosine-5′-O-[(phosphonomethyl)phosphonic acid]]

- CD73 inhibitory activity (in words) ([1]; rat CD73): inactive
SMILES: CCCn1c(=O)ccn([C@@H]2O[C@H](COP(=O)(O)CP(=O)(O)O)[C@@H](O)[C@H]2O)c1=O [4d, 3-Propyluridine-5′-O-[(phosphonomethyl)phosphonic acid]]

- CD73 inhibitory activity (in words) ([1]; rat CD73): inactive
SMILES: O=c1ccn([C@@H]2O[C@H](COP(=O)(O)CP(=O)(O)O)[C@@H](O)[C@H]2O)c(=O)n1Cc1ccccc1 [4e, 3-Benzyluridine-5′-O-[(phosphonomethyl)phosphonic acid]]

- fold more potent at human CD73 as compared to the rat enzyme [2]: 2 to 3 fold
SMILES: O=c1[nH]c(=O)n([C@@H]2O[C@H](COP(=O)(O)CP(=O)(O)O)[C@@H](O)[C@H]2O)cc1F [4l, 5-Fluorouridine-5′-O-[(phosphonomethyl)phosphonic acid]]

- CD73 inhibitory activity (in words) ([1]; rat CD73): complete loss of CD73 inhibition
SMILES: O=c1ccn([C@@H]2O[C@H](COP(=O)(O)CCP(=O)(O)O)[C@@H](O)[C@H]2O)c(=O)[nH]1 [4w, Uridine-5′-O-[(phosphonoethyl)phosphonic acid]]

- CD73 inhibitory activity (in words) ([1]; rat CD73): complete loss of CD73 inhibition
SMILES: Cc1cn([C@@H]2O[C@H](COP(=O)(O)CCP(=O)(O)O)[C@@H](O)[C@H]2O)c(=O)[nH]c1=O [4x, 5-Methyluridine-5′-O-[(phosphonoethyl)phosphonic acid]]

- Ki [4]: 10.1 ± 1.4 nM
- Ki [1]: 30.3 ± 4.2 nM
- Ki [5]: 14 ± 1.6 nM
- fold more potent at human CD73 as compared to the rat enzyme [2]: 2 to 3 fold
SMILES: O=c1[nH]c(=NOCc2ccc(C(F)(F)F)cc2)ccn1[C@@H]1O[C@H](COP(=O)(O)CP(=O)(O)O)[C@@H](O)[C@H]1O [9d, N^4-[O-(4-Trifluoromethylbenzyloxy)]-cytidine-5′-O-[(phosphonomethyl)phosphonic acid]]

- fold more potent at human CD73 as compared to the rat enzyme [2]: 2 to 3 fold
SMILES: O=c1[nH]/c(=N/OCc2ccc3ccccc3c2)ccn1[C@@H]1O[C@H](COP(=O)(O)CP(=O)(O)O)[C@@H](O)[C@H]1O [9e, N^4-[O-(Naphthalen-2-ylmethoxy)]-cytidine-5′-O-[(phosphonomethyl)phosphonic acid]]

- Km ([1]; read-out: Km, rat CD73, substrate AMP): 53 ± 4.1 µM
SMILES: Nc1ncnc2c1ncn2[C@@H]1O[C@H](COP(=O)(O)O)[C@@H](O)[C@H]1O [AMP, adenosine 5′-monophosphate]

- CD73 inhibitory activity (in words) ([1]; rat CD73): inactive
SMILES: O=c1cc(O)ccn1[C@@H]1O[C@H](COP(=O)(O)CP(=O)(O)O)[C@@H](O)[C@H]1O [compound 10, 3-Deazauridine-5′-O-[(phosphonomethyl)phosphonic acid]]

- CD73 inhibitory activity (in words) ([1]; rat CD73): inactive
SMILES: O=c1ccn([C@@]23C[C@H]2[C@H](COP(=O)(O)CP(=O)(O)O)[C@@H](O)[C@H]3O)c(=O)[nH]1 [compound 11, (S)-Methanocarbauridine-5′-O-[(phosphonomethyl)phosphonic acid]]
